# Assay results as given in US6875737B1, “Multivalent compounds for crosslinking receptors and uses thereof” (Trustees of Tufts College, priority 1996, dated 2005).
# Read-outs that look alike come from different tables or passages of the source. Marks after values point to notes of the source that are not given here. Ends that are not written are not given here.
# Columns and labels:
# [1] = test system: Dipeptidyl Peptidase IV (DP IV, CD26); test: Inhibition of DP IV (CD26) proteinase activity, Ki; assay type: biochemical; settings: soluble DP IV (CD26)
# Text: Assays to measure CD26 (DP IV) activity will be performed on both the homobivalent compounds, e.g., Lys-boroPro coupled to another, and the heterobivalent compounds, e.g., Lys-boroPro coupled to a peptide specific for a T cell surface receptor, e.g., moth cytochrome C peptide. Methods for quantitatively measuring the interaction of small peptidomimetic inhibitors with CD26 or DP IV, as well as for the interaction of CD26 with larger ligands, e.g., the HIV Tat protein, have been developed (W. G. Gutheil and W. W. Bachovchin. Separation of L-Pro-DL-boroPro into Its Component Diastereomers and Kinetic analysis of Their Inhibition of Dipeptidyl Peptidase IV. A New Method for the Analysis of Slow, Tight-Binding Inhibition, Biochemistry 32, 8723-8731 (1993); Gutheil, W. G., and W., B. W. Kinlsq, A Matlab Program for Fitting Kinetics Data with Numerically Integrated Rate Equations and Its Application to the Analysis of Slow, Tight Binding Data, Analytical Biochemistry 223, 13-20 (1994); Gutheil, W. G., Subramanyam, M., Flentke, G. R., Sanford, D. G., Munoz, E., Huber, B. T., and Bachovchin, W. W. HIV-1 Tat Binds to DP IV (CD26): A possible Mechanism for Tat's Immunosuppressive Activity, Proc. Natl. Acad. Sci. U.S.A. 91, 6594-6598 (1994)). These methods use the chromatogenic substrate Ala-Pro-p-nitroanilide (APpNA) and fluorescent substrate Ala-Pro-7-amino-4-trifluoromethyl coumarin (AP-AFC). APpNA and AP-AFC are commercially available (e.g., Enzyme Systems Products, Dublin, Calif.).
# [2] = mice; cited from earlier work
# H9 cells [3] = test: IL-2 production by H9 cells stimulated with anti-CD3 mAb OKT3 (HT2 bioassay); assay type: cell-based
# Method: To determine the effect KbP2-Adipate had on anti-CD3 mAb stimulation of H9 cells, e.g., stimulation of suppressing IL-2 production, the following protocol was used.
# In quadruplicate wells, H9 cells were preincubated with KbP2-Adipate for 0, 30, 60, or 150 min. After the preincubation, the cells were seeded into a 96 well flatbottom plate pre-coated with anti-CD3 monoclonal antibody OKT3 at 1,000, 5,000, 10,000, 20,000, 50,000, or 100,000 times dilution of stock. After 24 hr, the cells were lysed by freezing at […]. IL-2 concentration in the H9 cells lysates was bioassayed using the IL-2 dependent cell line HT2, Watson, J. D. “Continuous proliferation of murine antigen specific helper T lymphocytes in culture,” 1979, Journal of Experimental Medicine, 150:1510. HT2 proliferation was measured by counting 3H-thymidine incorporation.
# Similar experiments were carried out with (KbP)2-EGS and the co-stimulatory antibody OKT3; the results of these experiments are shown in FIG. 12.
# H9 cells [4] = test: H9 cell viability, trypan blue hemocytometry counts and flow cytometry; assay type: cell-based
# Text: Possible explanations for the observed inhibitory activity shown in FIG. 3 were eliminated with proper negative controls.
# [5] = Conformational equilibrium of cyclic and open chain forms; assay type: physicochemical; settings: at equilibrium at pH 7.0
# Text: G. Gutheil and W. W. Bachovchin, separation of L-Pro-DL-boroPro into Its Component Diastereomers and Kinetic Analysis of Their Inhibition of Dipeptidyl Peptidase IV. A New Method for the Analysis of Slow, Tight-Binding Inhibition, Biochemistry 32, 8723-8731 (1993)).
# [6] = test system: Dipeptidyl Peptidase IV (DP IV, CD26); settings: cited from earlier work
# [7] = test system: T cell clone 2E5.G10.G5.E5; test: T cell clone proliferation, thymidine uptake; assay type: cell-based
# Method: (§1) The proliferative effect of PLP-S-KbP on several different T cell clones that recognize PLP 139-151 were tested. T cell clones that recognize an irrelevant epitope, were used as negating controls. The protocol used is described (Kuchroo, V. K., et al., B7-1 and B7-2 Costimulatory Molecules Activate Differentially the Th1/Th2 Developmental Pathways: Application to Autoimmune Disease Therapy, Cell 80, 707-718 (1995)) and is incorporated herein by reference. Proliferation was measured by thymidine uptake. Table 1 below compares the effect PLP-S-KbP, antigenic PLP 139-151 peptide and non-antigenic PLP 103-116 peptide has on proliferation in different five PLP 139-151 specific T cell clones.
# [8] = test system: T cell clone 4E3.B11.D9.H10.H6; test: T cell clone proliferation, thymidine uptake; assay type: cell-based
# Method: as §1
# [9] = test system: T cell clone 5B8.G8.E6.H12; test: T cell clone proliferation, thymidine uptake; assay type: cell-based
# Method: as §1
# T cell clone 7A5.F10.G11 = test: T cell clone proliferation, thymidine uptake; assay type: cell-based
# Method: as §1
# [10] = test system: T cell clone SPL.C1.H2.F2; test: T cell clone proliferation, thymidine uptake; assay type: cell-based
# Method: as §1
compound,measurement,setting,value
"NCCCC[C@H](N)C(=O)N1CCC[C@H]1B(O)O (single isomer, unassigned) [L,D isomer, Lys-boroPro]",DP IV inhibition,[1],non inhibitory
"NCCCC[C@H](N)C(=O)N1CCC[C@H]1B(O)O (single isomer, unassigned) [L,L isomer, Lys-boroPro]",DP IV inhibition,[1],inhibitory
C[C@H](N)C(=O)N1CCC[C@H]1B(O)O [Ala-boroPro],immune response in vivo (antibody production after antigen challenge),[2],inhibited an immune response in vivo in mice
"N[C@@H](CCCCNC(=O)CCCCC(=O)NCCCC[C@H](N)C(=O)N1CCC[C@H]1B(O)O)C(=O)N1CCC[C@H]1B(O)O [KbP2-Adipate, di(L-Lysine-L-boroProline)adipate]",shape of dose response on IL-2 production,H9 cells [3],decreases with increasing KbP2-Adipate concentrations
same,suppression of IL-2 production,"H9 cells [3]; 4.0×10^−10 M, anti-CD3 mAb stimulation of H9 cells (FIG. 4)",98%
same,concentration range where stimulatory effect begins,H9 cells [3]; FIG. 5,~1 pM
same,concentration range where stimulatory effect saturates,H9 cells [3]; FIG. 5,~10 mM
same,augmentation of IL-2 production (co-stimulatory activity),"H9 cells [3]; higher concentrations (FIG. 5), depends on concentration and preincubation time",up to 4 fold
same,effect on IL-2 production,"H9 cells [3]; higher concentrations, e.g. 10^−6 M (FIG. 5)",potent stimulator
same,effect on IL-2 production,"H9 cells [3]; lower concentrations, e.g. 10^−10 M (FIG. 4)",potent inhibitor
same,cell viability,H9 cells [4],did not affect cell viability
"CC(N)C(=O)N1CCCC1B(O)O [L-Ala-D,L-boroPro]",DP IV inhibition,[1],potent inhibitors
"O=C(C1CCCN1)N1CCCC1B(O)O [L-Pro-D,L-boroPro]",DP IV inhibition,[1],potent inhibitors
O=C(C1CCCN1)N1CCCC1B(O)O (stereo not shown) [Pro-boroPro],"fraction existing as open chain, inhibitory species",[5],less than 1%
same,immune response in vivo (antibody production after antigen challenge),[2],inhibited an immune response in vivo in mice
CC(C)C(N)C(=O)N1CCCC1B(O)O (stereo not shown) [Val-boroPro],"fraction existing as open chain, inhibitory species",[5],less than 0.1%
OB(O)C1CCCN1 (stereo not shown) [boroPro],DP IV inhibition,[6],not an effective inhibitor
"HSLGKWLGHPDKF [PLP 139-151, peptide corresponding to residues 139-151 of myelin proteolipid protein]","proliferation, thymidine uptake",[7]; dose 0.1 μM,101 ^3H counts
same,"proliferation, thymidine uptake",[7]; dose 1 μM,288 ^3H counts
same,"proliferation, thymidine uptake",[7]; dose 10 μM,70 ^3H counts
same,"proliferation, thymidine uptake",[7]; dose 100 μM,"1,506 ^3H counts"
same,"proliferation, thymidine uptake",[8]; dose 0.1 μM,318 ^3H counts
same,"proliferation, thymidine uptake",[8]; dose 1 μM,125 ^3H counts
same,"proliferation, thymidine uptake",[8]; dose 10 μM,534 ^3H counts
same,"proliferation, thymidine uptake",[8]; dose 100 μM,"1,932 ^3H counts"
same,"proliferation, thymidine uptake",[9]; dose 0.1 μM,106 ^3H counts
same,"proliferation, thymidine uptake",[9]; dose 1 μM,349 ^3H counts
same,"proliferation, thymidine uptake",[9]; dose 10 μM,"9,176 ^3H counts"
same,"proliferation, thymidine uptake",[9]; dose 100 μM,"41,073 ^3H counts"
same,"proliferation, thymidine uptake",T cell clone 7A5.F10.G11; dose 0.1 μM,117 ^3H counts
same,"proliferation, thymidine uptake",T cell clone 7A5.F10.G11; dose 1 μM,222 ^3H counts
same,"proliferation, thymidine uptake",T cell clone 7A5.F10.G11; dose 10 μM,406 ^3H counts
same,"proliferation, thymidine uptake",T cell clone 7A5.F10.G11; dose 100 μM,"2,324 ^3H counts"
same,"proliferation, thymidine uptake",[10]; dose 0.1 μM,423 ^3H counts
same,"proliferation, thymidine uptake",[10]; dose 1 μM,107 ^3H counts
same,"proliferation, thymidine uptake",[10]; dose 10 μM,400 ^3H counts
same,"proliferation, thymidine uptake",[10]; dose 100 μM,809 ^3H counts
"HSLGKWLGHPDKFAAAAAA-εKbP (not fully specified (C-terminus); printed as HSLGKWLGHPDKFAAAAAA-εKbP; also: C-terminus joined to epsilon-amino of Lys, which carries boroPro) [PLP-S-KbP, Lys-boroPro linked by its ε-amino group via six alanines to the C terminus of PLP 139-151]","proliferation, thymidine uptake",[7]; dose 0.1 μM,175 ^3H counts
same,"proliferation, thymidine uptake",[7]; dose 1 μM,"7,738 ^3H counts"
same,"proliferation, thymidine uptake",[7]; dose 10 μM,"26,410 ^3H counts"
same,"proliferation, thymidine uptake",[7]; dose 100 μM,"36,686 ^3H counts"
same,"proliferation, thymidine uptake",[8]; dose 0.1 μM,"3,688 ^3H counts"
same,"proliferation, thymidine uptake",[8]; dose 1 μM,"8,580 ^3H counts"
same,"proliferation, thymidine uptake",[8]; dose 10 μM,"15,753 ^3H counts"
same,"proliferation, thymidine uptake",[8]; dose 100 μM,"17,608 ^3H counts"
same,"proliferation, thymidine uptake",[9]; dose 1 μM,"22,022 ^3H counts"
same,"proliferation, thymidine uptake",[9]; dose 10 μM,"53,628 ^3H counts"
same,"proliferation, thymidine uptake",[9]; dose 100 μM,"34,716* ^3H counts"
same,"proliferation, thymidine uptake",T cell clone 7A5.F10.G11; dose 0.1 μM,187 ^3H counts
same,"proliferation, thymidine uptake",T cell clone 7A5.F10.G11; dose 1 μM,"8,202 ^3H counts"
same,"proliferation, thymidine uptake",T cell clone 7A5.F10.G11; dose 10 μM,"35,521 ^3H counts"
same,"proliferation, thymidine uptake",T cell clone 7A5.F10.G11; dose 100 μM,"43,999 ^3H counts"
same,"proliferation, thymidine uptake",[10]; dose 0.1 μM,681 ^3H counts
same,"proliferation, thymidine uptake",[10]; dose 1 μM,"2,527 ^3H counts"
same,"proliferation, thymidine uptake",[10]; dose 10 μM,"17,516 ^3H counts"
same,"proliferation, thymidine uptake",[10]; dose 100 μM,"31,635 ^3H counts"
PLP103-116: non-antigenic PLP 103-116 peptide (DYKTTICGKGLSAT),"proliferation, thymidine uptake",[7]; dose 0.1 μM,307 ^3H counts
same,"proliferation, thymidine uptake",[7]; dose 1 μM,434 ^3H counts
same,"proliferation, thymidine uptake",[7]; dose 10 μM,60 ^3H counts
same,"proliferation, thymidine uptake",[7]; dose 100 μM,107 ^3H counts
same,"proliferation, thymidine uptake",[8]; dose 0.1 μM,178 ^3H counts
same,"proliferation, thymidine uptake",[8]; dose 1 μM,559 ^3H counts
same,"proliferation, thymidine uptake",[8]; dose 10 μM,224 ^3H counts
same,"proliferation, thymidine uptake",[8]; dose 100 μM,274 ^3H counts
same,"proliferation, thymidine uptake",[9]; dose 0.1 μM,124 ^3H counts
same,"proliferation, thymidine uptake",[9]; dose 1 μM,226 ^3H counts
same,"proliferation, thymidine uptake",[9]; dose 10 μM,74 ^3H counts
same,"proliferation, thymidine uptake",[9]; dose 100 μM,143 ^3H counts
same,"proliferation, thymidine uptake",T cell clone 7A5.F10.G11; dose 0.1 μM,556 ^3H counts
same,"proliferation, thymidine uptake",T cell clone 7A5.F10.G11; dose 1 μM,314 ^3H counts
same,"proliferation, thymidine uptake",T cell clone 7A5.F10.G11; dose 10 μM,117 ^3H counts
same,"proliferation, thymidine uptake",T cell clone 7A5.F10.G11; dose 100 μM,124 ^3H counts
same,"proliferation, thymidine uptake",[10]; dose 0.1 μM,238 ^3H counts
same,"proliferation, thymidine uptake",[10]; dose 1 μM,123 ^3H counts
same,"proliferation, thymidine uptake",[10]; dose 10 μM,479 ^3H counts
same,"proliferation, thymidine uptake",[10]; dose 100 μM,150 ^3H counts
